Assay results as given in publication PMC12291913 (Antibiotics, 2025).
Read-outs that look alike come from different tables or passages of the source.

Test system: M. avium clinical isolates
Assay type: cell-based, M. avium subsp. hominissuis
Settings: for range of mean FICIms: over isolates, WQ-3810 and MXF together

Question: How did the interaction (in combination with EMB, mean FICIm between 0.5 and 1 additive) turn out when `Cc1c(N2CC(N(C)C)C2)c(F)cc2c(=O)c(C(=O)O)cn(-c3nc(N)c(F)cc3F)c12` [WQ-3810] was run?
Answer: additive

Question: What about the interaction (in combination with INH, FICIm ≤ 0.5 regarded as synergistic) of the same molecule?
Answer: synergistic

Question: What about the “range of mean FICIms” value (with EMB) of the same molecule?
Answer: 0.41 to 0.91

Question: And the “range of mean FICIms” value (with INH)?
Answer: 0.19 to 0.71
